Source: patent US9289444B2, “Composition for promoting hematogenesis containing quercetin 3-O-β-(2″-galloyl)-rhamnopyranoside as active ingredient” (Chungbuk National University Industry Academic Cooperation …, priority 2011, dated 2016)

Columns and labels:
BMNCs [1] = test: Cell viability assay (CCK-8), normoxia or hypoxia; format: cell-based, mouse
Source text: (§1) Bone marrow mononuclear cells (BMNCs) were isolated from femurs and tibias of 8 to 12-week-old male C57BL/6 mice by a previously described protocol [Kroeger K, Collins M, Ugozzoli (2009) The preparation of primary hematopoietic cell cultures from murine bone marrow for electroporation. J. Vis. Exp. 23: pii:1026. doi:10.3791/1026] and were separated from dead cells and red blood cells (RBCs) by Histopaque ([…]) (Sigma-Aldrich Chemical, St. Louis, Mo., USA) density gradient centrifugation. Thereafter, the cells were cultured in Iscove's modified Dulbecco's media (IMDM) with 15% heat inactivated fetal bovine serum (FBS), 1% bovine serum albumin (BSA), 100 units/ml penicillin and 100 μg/ml streptomycin at 37° C. in 5% CO2 humidified air. The separated blood was cultured as described previously [Oswald J, et al. (2004). Mesenchymal stem cells can be differentiated into endothelial cells in vitro. Stem Cells, 22: 377-384.] to obtain bone marrow stromal cells in α-minimum essential medium (MEM) with 20% heat inactivated FBS, 100 units/ml penicillin and 100 μg/ml streptomycin at 37° C. in 5% CO2 humidified air.
The possible cytotoxicity of QGR was examined in BMNCs. The cells were plated with a density of 5×10^3 cells/well in 96 well plates in 200 μl of medium. The cells cultured for 24 hrs with variable concentrations of QGR in either normoxia or hypoxia conditions were evaluated using a cell counting-8 assay kit (CCK-8) according to the manufacturer's instructions (Dojindo Molecular Technologies, Rockville, Md., USA). Briefly, 20 μl of CCK-8 solution was added to each well. The plates were incubated for 2 hrs in an incubator at 37° C. The resulting color was assayed at 450 nm using an EL808 microplate absorbance reader (BIO-TEK, Winooski, Vt., USA).

[2] = tested on: bone marrow stromal cells; test: Real-time RT-PCR of hematopoietic cytokine mRNA; format: cell-based, mouse
Source text: as §1
To confirm whether QGR regulates the expression of hematopoietic cytokines in bone marrow stromal cells, real-time RT-PCR was performed. Bone marrow stromal cells (3×10^5 cells/plate) were incubated with either mouse rIL-3 (100 units/ml) plus rSCF (5 units/ml) plus rEpo (3 units/ml) or QGR (50, 100 or 200 μM/ml) in 60 mm-diameter cell culture plates. The cells were harvested after 4 hr of incubation and washed with PBS and total RNA were extracted using RNA extraction kit (Applied Biosystems, Carlsbad, Calif., USA). First strand synthesis of cDNA was carried out with 1 μg of total RNA using cDNA synthesis kit (Applied Biosystems, Foster City, Calif., USA). Real-time PCR using TaqMan probe PCR master mix kit (Applied Biosystems) was performed according to the manufacturer's instruction using a model 7500 Real-Time PCR System (Applied Biosystems). GAPDH mRNA was utilized as an internal standard to normalize target transcript expression. The relative ratios of SCF, GM-CSF, or Epo mRNA to GAPDH mRNA which can be used to quantify precisely the levels of each mRNA expression, were calculated with the standard curves.

BMNCs [3] = test: Semisolid colonogenic assay (BFU-E colonies); format: cell-based, mouse
Method: To investigate the effects of QGR on erythroid lineage development in mouse HSCs and EPCs, the colonogenic assay was performed according to the manufacturer's instruction in triplicate by plating 2×10^5 cells/plate using methylcellulose stock solution in IMDM (R&D Systems) with cocktail (rIL-3 100 units/ml plus rSCF 5 units/ml plus rEpo 3 units/ml) or/and QGR (0, 100 or 200 μM/ml) in 35 mm-diameter cell culture plates. These plates were put in 100 mm-diameter plates with 3 ml of autoclaved distilled water and incubated at 37° C. in 5% CO2 humidity air. 14 days later, BFU-E colonies were counted under an Axiovert 40 CFL inverted microscope (Carl Zeiss, Oberkochen, Germany).

BMNCs [4] = test: Histochemistry (Wright-Giemsa) and immunocytochemistry for erythroid cells (TER-119); format: cell-based, mouse; settings: 7 days culture
Method: In order to investigate whether QGR can stimulate the differentiation of hematopoietic stem cells into erythroid cells, the morphology of cells was observed and immunocytochemistry against TER-119, the marker of erythroid progenitors, was carried out. BMNCs were harvested 7 days after incubation with either rEpo (3 units/ml) or QGR (100 or 200 μM/ml) washed with PBS, re-suspended at a concentration of 2×10^5 cells/ml in PBS and subjected (100 μl/slide) to cytospin for 5 min at 1,000 rpm (Cytospin3; Shandon, ThermoElectron, Waltham, Mass., USA). All slides were fixed using cold methanol. Wright-Giemsa stain was performed for morphologic analysis. Immunocytochemistry against TER-119 was carried out for cellular lineage with 100-fold dilution according to the manufacturer's instruction using avidin biotinylated enzyme complex kit (VECTASTAIN, Vector Laboratories and Burlingame, Calif., USA).

[5] = tested on: unopsonized zymosan-stimulated human monocytes; settings: cited from earlier work
[6] = tested on: lipopolysaccharide (LPS)-stimulated RAW 264.7 macrophage cells; settings: cited from earlier work
LPS-induced Balb/c mice = settings: cited from earlier work
[7] = 100 and 200 μM, vs rIL-3+rSCF+rEpo

## CC1OC(Oc2c(-c3ccc(O)c(O)c3)oc3cc(O)cc(O)c3c2=O)C(OC(=O)c2cc(O)c(O)c(O)c2)C(O)C1O (stereo not drawn) [QGR, quercetin 3-O-β-(2″-galloyl)-rhamnopyranoside]
BMNCs [1]; 50 μM, 24 hrs
  cell viability: significantly increased cell viability
BMNCs [1]; BMNCs, 24 hrs, various concentrations
  cytotoxicity: not cytotoxic
BMNCs [1]; QGR post-treatment 200 μM, hypoxic damage for 24 hrs
  cell viability after hypoxic damage: increased cell viability
BMNCs [1]; QGR pretreatment, hypoxic damage 24 hrs, vs untreated group, dose-dependent
  viable cells under hypoxic damage: increased the viable cells
[2]; 50, 100 or 200 μM/ml, 4 hrs, dose-dependent
  mRNA expression levels of SCF, GM-CSF and Epo: increased
[2]; [7]
  Epo mRNA compared to the positive control: significantly increased
  GM-CSF mRNA compared to the positive control: significantly increased
[2]; all concentrations, vs rIL-3+rSCF+rEpo
  SCF mRNA compared to the positive control: significantly increased
BMNCs [3]; cocktail (rIL-3, rSCF and rEpo) plus 200 μM QGR, p<0.01
  formation and growth of BFU-E colonies compared with the positive control: 1.43 fold
BMNCs [3]; day 14, 100 or 200 μM/ml for QGR, dose-dependent
  number of BFU-E colonies compared with negative control: significantly enhanced
BMNCs [3]; day 14, QGR alone vs rIL-3+rSCF+rEpo
  number of BFU-E colony compared with positive control: smaller than that of positive control
BMNCs [4]; Wright-Giemsa staining
  number of enucleated erythroid cells: increased
BMNCs [4]; vs negative control
  TER-119+ cells (immunocytochemical analysis): increased
[5]
  superoxide production: inhibiting
[6]
  nitric oxide production: inhibiting
LPS-induced Balb/c mice
  nitric oxide production: inhibiting
